Measured values as given in patent US10905586B2, “Methods and devices for drug delivery to ocular tissue using microneedle” (Emory University, priority 2006, dated 2021).

Assay: Delivery and clearance of fluorescent molecule in suprachoroidal space of live rabbits
Type: in vivo
Conditions: live rabbit
Description: The delivery of a fluorescent molecule (sodium fluorescein) to the suprachoroidal space was evaluated using rabbits according to approved live animal experimental protocols. A one dimensional scan of the eye (through line of sight) was taken within the first five minutes after injection to determine the dispersion of the fluorescent molecule in the eye (FIG. 14). The y-axis indicates the fluorescent intensity (i.e., the concentration) and the x-axis represents the position in the eye from front (160) to back (0). Thus, the results illustrate that within the first 5 minutes after injection, the fluorescein had already flowed through the suprachoroidal space to the back of the eye, with some remaining at the initial insertion site.
Similar scans were taken to evaluate the rate of clearance of fluorescein from the suprachoroidal space over time (FIG. 15). The fluorescent intensity was measured in two regions of the eye (the suprachoroidal space and mid-vitreous region) over time.

Time to substantial clearance from the suprachoroidal space (suprachoroidal injection): ≤ 24 h | Time after injection by which it had flowed through the suprachoroidal space to the back of the eye (suprachoroidal injection, line of sight scan): ≤ 5 min
SMILES: O=C1OC2(c3ccc(O)cc3Oc3cc(O)ccc32)c2ccccc21 [sodium fluorescein]
Distribution suprachoroidal space vs mid-vitreous region (fluorescent intensity over time): remains in the suprachoroidal space without passing into the mid-vitreous region
